The nature of experiment [1]: The compound was tested for toxicity against human breast cancer cell line MDA-MB-231. It is filed as functional, cell-based. As to conditions: cancer cell lines.
In another experiment the test system is HL-60. Nature of the experiment: cells. As to conditions: Homo sapiens.
Experiment [2] is described as follows: The compound was tested for toxicity against human ovarian cancer cell line SK-OV-3. It is filed as functional, cell-based. As to conditions: cancer cell lines.
The test system of the next experiment is SK-MEL-5. Nature of the experiment: cells. As to conditions: Homo sapiens.
Experiment [3] is described as follows: The compound was tested for toxicity against human NSCL cancer cell line NCI-H522. The class given is functional, cell-based. The note with it: cancer cell lines.
Experiment [4] is described as follows: The compound was tested for toxicity against human NSCL cancer cell line NCI-H23. As to conditions: cancer cell lines. It is filed as functional, cell-based.
Experiment [5] is described as follows: The compound was tested for toxicity against human renal cancer cell line RXF-393. It is filed as functional, cell-based. As to conditions: cancer cell lines.
Experiment [6] in a line: The compound was tested for toxicity against human breast cancer cell line BT-549. The class given is functional, cell-based. As to conditions: cancer cell lines.
Experiment [7] addresses T1, E3 ubiquitin-protein ligase XIAP (Homo sapiens, UniProt P98170). The experiment is described as follows: Binding affinity to the BIR3 domain of X-linked IAP.
Experiment [8] deals with T1, E3 ubiquitin-protein ligase XIAP. Nature of the experiment: Relief of caspase inhibition in reconstituted assay (APAF-1, caspase-9, procaspase-3) with BIR3 domain of XIAP.
Experiment [9] has the same target. Nature of the experiment: Relief of caspase inhibition in reconstituted assay (APAF-1, caspase-9, procaspase-3) with XIAP.

Several values for one entry are separate records, joined by “and”; a condition that tells them apart may be missing. Equal entries are not always repeated. Numbered stars: 1 amine (or outer) side, 2 acyl side, 3 side chain; on linkers, the order of the positions; unused ones are H or OH. Square brackets hold non-standard residues; d marks the D form. Peptide text beside a SMILES is read from it. ξ: configuration not given here. Phe(4-Cl) = N[C@@H](Cc1ccc(Cl)cc1)C(=O)O; 1Nal = N[C@@H](Cc1cccc2ccccc12)C(=O)O; 2Nal = N[C@@H](Cc1ccc2ccccc2c1)C(=O)O; X1 = O=C([C@@H]1CC(O)CN1[*:1])[*:2]; hPhe = N[C@@H](CCc1ccccc1)C(=O)O; Phg = N[C@H](C(=O)O)c1ccccc1; Tle = CC(C)(C)[C@H](N)C(=O)O; Nle = CCCC[C@H](N)C(=O)O; ξPip = O=C(O)C1CCCCN1; Aib = CC(C)(N)C(=O)O; ξNMeA = CNC(C)C(=O)O; ξAze = O=C(O)C1CCN1; Sar = CNCC(=O)O

T1 sequence (P98170 whole entry, the tested form may be a part): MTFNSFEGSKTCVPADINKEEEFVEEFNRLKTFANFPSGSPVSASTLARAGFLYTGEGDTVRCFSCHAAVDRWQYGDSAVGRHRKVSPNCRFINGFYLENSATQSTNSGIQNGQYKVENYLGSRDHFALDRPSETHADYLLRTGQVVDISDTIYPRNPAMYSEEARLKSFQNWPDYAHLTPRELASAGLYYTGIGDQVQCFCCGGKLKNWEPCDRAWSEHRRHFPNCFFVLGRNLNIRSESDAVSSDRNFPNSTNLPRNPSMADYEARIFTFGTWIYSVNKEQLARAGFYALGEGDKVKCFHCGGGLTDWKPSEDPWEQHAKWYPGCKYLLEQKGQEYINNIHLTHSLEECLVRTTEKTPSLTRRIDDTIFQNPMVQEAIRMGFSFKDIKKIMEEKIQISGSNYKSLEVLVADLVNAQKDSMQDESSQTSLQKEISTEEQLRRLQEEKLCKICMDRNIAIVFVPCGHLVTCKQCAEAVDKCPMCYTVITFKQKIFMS
Description for HL-60: The compound was tested for toxicity against human leukemia cancer cell line HL-60
Description for SK-MEL-5: The compound was tested for toxicity against human melanoma cancer cell line SK-MEL-5

On to `CN[C@@H](C)C(=O)N[C@H](C(=O)N1CCC[C@H]1C(=O)N[C@@H]1CCCc2ccccc21)C(C)(C)C`, for which the EC50 – broadly, the concentration needed to bring the measured effect to its halfway point – turned out to be 60 nM in [1]; 990 nM in the experiment with HL-60; 1500 nM in experiment [2]; 1300 nM in the experiment on SK-MEL-5; 1700 nM in [3]; 5300 nM in [4]. The EC50 in experiment [5] worked out at 810 nM; in experiment [6], 10 nM. As to `CC(C)[C@@H](NC(=O)[C@H](C)N)C(=O)N1CCC[C@H]1C(=O)N[C@@H](Cc1ccccc1)C(=O)N[C@@H](Cc1ccc(O)cc1)C(=O)O`, in experiment [7], the Kd (usually the constant that tells how readily two partners part at equilibrium) is 90 nM and 120 nM.

For `CN[C@@H](C)C(=O)N[C@H](C(=O)N1CCC[C@H]1C(=O)N[C@H]1CCCc2ccccc21)C(C)(C)C`, the EC50 in experiment [1] is 3000 nM; in experiment [2], 5600 nM. For the compound `C[C@@H](C(=O)N[C@H](C(=O)N1CCC[C@H]1C(=O)N[C@@H]1CCCc2ccccc21)C1CCCCC1)N(C)C`, the EC50 is 3400 nM in [1]; 4300 nM in the experiment on HL-60; > 25000 nM in experiment [2]; 15000 nM in the experiment with SK-MEL-5; > 50000 nM in experiment [3]; > 50000 nM in experiment [4]. Further, the results for the EC50 in [5] and in experiment [6] were > 50000 nM and 1000 nM, respectively. Turning to `CN[C@@H](C)C(=O)N[C@H](C(=O)N1CCC[C@H]1C(=O)N[C@@H]1CCCc2ccccc21)C1CCCCC1`, the EC50 in [1] came to 10 nM; in the experiment on HL-60, 190 nM; in experiment [2] it was 1300 nM; in the experiment on SK-MEL-5, 290 nM; in experiment [3] it was 2000 nM; in experiment [4], 1500 nM. In addition, the results for the EC50 in [5] and in [6] were 1100 nM and 7 nM, respectively. Compound `CN[C@@H](C)C(=O)N[C@H](C(=O)N1CCC[C@H]1C(=O)NC1c2ccccc2-c2ccccc21)C(C)(C)C` returned a Kd in experiment [7] of 40 nM. On the same count and under the same terms, in the case of `CN[C@@H](C)C(=O)N[C@H](C(=O)N1CCC[C@H]1C(=O)N[C@@H]1CCc2ccccc21)C(C)(C)C` it was 20 nM; in that of `CC(C)[C@@H](C(=O)N1CCC[C@H]1C(=O)N[C@@H](Cc1ccccc1)C(=O)N[C@@H](Cc1ccc(O)cc1)C(=O)O)N(C)C`, 8700 nM. The same measure, in the same setting: then `CC(C)C[C@@H](NC(=O)[C@H](C)N)C(=O)N1CCC[C@H]1C(=O)N[C@@H](Cc1ccccc1)C(=O)N[C@@H](Cc1ccc(O)cc1)C(=O)O`, with 160 nM. For `CC(C(=O)N[C@H](C(=O)N1C[C@@H](Oc2ccccc2)C[C@H]1C(=O)NC1CCCc2ccccc21)C(C)(C)C)N(C)C` (some centres not stated), the EC50 in [8] and in [9] was > 100000 nM throughout. For the same compound, in [7], the Kd is > 1000 nM. `CC(C)[C@H](NC(=O)[C@H](C)N)C(=O)N1CCC[C@H]1C(=O)N[C@@H](Cc1cccc2ccccc12)C(=O)N[C@@H](Cc1ccc(O)cc1)C(=O)O` (H-AVP[1Nal]Y-OH) yielded a Kd in [7] of 90 nM. On the same count and under the same terms, in the case of `CC(C)[C@H](NC(=O)[C@H](C)N)C(=O)N1CCC[C@H]1C(=O)N[C@@H](Cc1ccc2ccccc2c1)C(=O)N[C@@H](Cc1ccc(O)cc1)C(=O)O` (H-AVP[2Nal]Y-OH) it was 190 nM.

Take `CC(C)[C@H](NC(=O)[C@H](C)N)C(=O)N1CCC[C@H]1C(=O)NC(C)(C)C(=O)N[C@@H](Cc1ccc(O)cc1)C(=O)O` (H-AVP[Aib]Y-OH): the Kd in experiment [7] is 6700 nM. The same measure, in the same setting: then `CCCC[C@H](NC(=O)[C@@H]1CCCN1C(=O)[C@@H](NC(=O)[C@H](C)N)C(C)C)C(=O)N[C@@H](Cc1ccc(O)cc1)C(=O)O` (H-AVP[Nle]Y-OH), with 900 nM; and `CC(C)[C@H](NC(=O)[C@H](C)N)C(=O)N1CCC[C@H]1C(=O)N[C@@H](Cc1ccc(Cl)cc1)C(=O)N[C@@H](Cc1ccc(O)cc1)C(=O)O` (H-AVP[Phe(4-Cl)]Y-OH), with 180 nM. Still for that read-out and setting: in the case of `CC(C)[C@H](NC(=O)[C@H](C)N)C(=O)N1CCC[C@H]1C(=O)N[C@H](C(=O)N[C@@H](Cc1ccc(O)cc1)C(=O)O)c1ccccc1` (H-AVP[Phg]Y-OH) it was 30 nM. On the same count and under the same terms, then `CC(C)[C@H](NC(=O)[C@H](C)N)C(=O)N1CCC[C@H]1C(=O)N[C@@H](CCc1ccccc1)C(=O)N[C@@H](Cc1ccc(O)cc1)C(=O)O` (H-AVP[hPhe]Y-OH), with 180 nM; and `CC(C)[C@H](NC(=O)[C@H](C)N)C(=O)NC(C)(C)C(=O)N[C@@H](Cc1ccccc1)C(=O)N[C@@H](Cc1ccc(O)cc1)C(=O)O` (H-AV[Aib]FY-OH), with > 20000 nM; and `CC(C)[C@H](NC(=O)[C@H](C)N)C(=O)N(C)CC(=O)N[C@@H](Cc1ccccc1)C(=O)N[C@@H](Cc1ccc(O)cc1)C(=O)O` (H-AV[Sar]FY-OH), with 600 nM. With `CC(C)[C@H](NC(=O)[C@H](C)N)C(=O)N1CC(O)C[C@H]1C(=O)N[C@@H](Cc1ccccc1)C(=O)N[C@@H](Cc1ccc(O)cc1)C(=O)O` (some centres not stated) (H-AV[X1]FY-OH), binding in experiment [7] was put at a Kd of 800 nM. Same read-out and setting: then `CC(C)[C@H](NC(=O)[C@H](C)N)C(=O)N1CCC1C(=O)N[C@@H](Cc1ccccc1)C(=O)N[C@@H](Cc1ccc(O)cc1)C(=O)O` (some centres not stated) (H-AV[ξAze]FY-OH), with 120 nM; and `CC(C)[C@H](NC(=O)[C@H](C)N)C(=O)N(C)C(C)C(=O)N[C@@H](Cc1ccccc1)C(=O)N[C@@H](Cc1ccc(O)cc1)C(=O)O` (some centres not stated) (H-AV[ξNMeA]FY-OH), with 1600 nM; and `CC(C)[C@H](NC(=O)[C@H](C)N)C(=O)N1CCCCC1C(=O)N[C@@H](Cc1ccccc1)C(=O)N[C@@H](Cc1ccc(O)cc1)C(=O)O` (some centres not stated) (H-AV[ξPip]FY-OH), with 400 nM. Still for that read-out and setting: then `C[C@H](N)C(=O)NC(C)(C)C(=O)N1CCC[C@H]1C(=O)N[C@@H](Cc1ccccc1)C(=O)N[C@@H](Cc1ccc(O)cc1)C(=O)O` (H-A[Aib]PFY-OH), with > 20000 nM; and `C[C@H](N)C(=O)N[C@H](C(=O)N1CCC[C@H]1C(=O)N[C@@H](Cc1ccccc1)C(=O)N[C@@H](Cc1ccc(O)cc1)C(=O)O)C(C)(C)C` (H-A[Tle]PFY-OH), with 40 nM; and `CC(C(=O)N1CCC[C@H]1C(=O)N[C@@H](Cc1ccccc1)C(=O)N[C@@H](Cc1ccc(O)cc1)C(=O)O)N(C)C(=O)[C@H](C)N` (some centres not stated) (H-A[ξNMeA]PFY-OH), with > 20000 nM.

In the case of `CC(C)C(NC(=O)[C@H](C)N)C(=O)N1CCC[C@H]1C(=O)N[C@@H](Cc1ccccc1)C(=O)N[C@@H](Cc1ccc(O)cc1)C(=O)O` (single isomer, unassigned), the Kd in experiment [7] is > 20000 nM. `CNC(C)C(=O)N[C@H](C(=O)N1CCC[C@H]1C(=O)N[C@@H]1CCCc2ccccc21)C(C)(C)C` (single isomer, unassigned): the EC50 in experiment [1] is 8300 nM; in experiment [2] it was > 50000 nM.

As to H-AGPFY-OH, in [7], the Kd is 2700 nM. Still for that read-out and setting: then H-AKPFY-OH, with 50 nM; and H-AVGFY-OH, with 3000 nM; and H-AVPFG-OH, with 3400 nM. Turning to H-AVPIY-OH, the Kd in [7] amounted to 360 nM. On the same count and under the same terms, then H-AVPLY-OH, with 280 nM; and H-AVPYY-OH, with 300 nM. Same read-out and setting: in the case of H-GVPFY-OH it was 9600 nM. Same read-out and setting: then H-VVPFY-OH, with 900 nM.
